Legend:
[1] = molecular target: T1, hERG channel (IKr) (Homo sapiens, UniProt Q12809); experiment: hERG test; format: cell-based; settings: HEK293 cells expressing hERG channel, pH 7.4, whole cell patch clamp, concentration not given, read-out: % inhibition relative to the tail peak current (IKr)
T1 construct: expressed in transfected cells; host or cells: HEK293
Excerpt: For the purpose of assessing risk of an electrocardiogram QT interval prolongation, effects on delayed rectifier K+ current (IKr), which plays an important role in the ventricular repolarization process, was studied using HEK293 cells expressing human ether-a-go-go related gene (hERG) channel.
After a cell was retained at a membrane potential of −80 mV by whole cell patch clamp method using an automated patch clamp system (PatchXpress 7000A, Axon Instruments Inc.), IKr induced by depolarization pulse stimulation at +50 mV for 2 seconds and, further, repolarization pulse stimulation at −50 mV for 2 seconds was recorded. […] From the recording IKr, an absolute value of the tail peak current was measured based on the current value at the resting membrane potential using an analysis software (DataXpress vet.1, Molecular Devices Corporation). Further, the % inhibition relative to the tail peak current before application of the test substance was calculated, and compared with the vehicle-applied group (0.1% dimethyl sulfoxide solution) to assess influence of the test substance on IKr.

[2] = Brain distribution studies; format: in vivo; settings: brain/plasma, iv; rat, intravenously 0.5 mg/mL/kg, 30 minutes later; read-out: brain Kp value (area ratio brain/plasma)
Method: Compound of the present invention was intravenously administered to a rat at 0.5 mg/mL/kg dosage. […] The brain was enucleated and 20-25% of homogenate thereof was prepared with distilled water. The obtained blood was used as plasma after centrifuging. To the brain sample was added the control plasma at 1:1. To the plasma samples was added the control brains at 1:1. Each sample was measured using LC/MS/MS. The obtained area ratio (a brain/plasma) was used for the brain Kp value.

T1 sequence (Q12809 whole entry): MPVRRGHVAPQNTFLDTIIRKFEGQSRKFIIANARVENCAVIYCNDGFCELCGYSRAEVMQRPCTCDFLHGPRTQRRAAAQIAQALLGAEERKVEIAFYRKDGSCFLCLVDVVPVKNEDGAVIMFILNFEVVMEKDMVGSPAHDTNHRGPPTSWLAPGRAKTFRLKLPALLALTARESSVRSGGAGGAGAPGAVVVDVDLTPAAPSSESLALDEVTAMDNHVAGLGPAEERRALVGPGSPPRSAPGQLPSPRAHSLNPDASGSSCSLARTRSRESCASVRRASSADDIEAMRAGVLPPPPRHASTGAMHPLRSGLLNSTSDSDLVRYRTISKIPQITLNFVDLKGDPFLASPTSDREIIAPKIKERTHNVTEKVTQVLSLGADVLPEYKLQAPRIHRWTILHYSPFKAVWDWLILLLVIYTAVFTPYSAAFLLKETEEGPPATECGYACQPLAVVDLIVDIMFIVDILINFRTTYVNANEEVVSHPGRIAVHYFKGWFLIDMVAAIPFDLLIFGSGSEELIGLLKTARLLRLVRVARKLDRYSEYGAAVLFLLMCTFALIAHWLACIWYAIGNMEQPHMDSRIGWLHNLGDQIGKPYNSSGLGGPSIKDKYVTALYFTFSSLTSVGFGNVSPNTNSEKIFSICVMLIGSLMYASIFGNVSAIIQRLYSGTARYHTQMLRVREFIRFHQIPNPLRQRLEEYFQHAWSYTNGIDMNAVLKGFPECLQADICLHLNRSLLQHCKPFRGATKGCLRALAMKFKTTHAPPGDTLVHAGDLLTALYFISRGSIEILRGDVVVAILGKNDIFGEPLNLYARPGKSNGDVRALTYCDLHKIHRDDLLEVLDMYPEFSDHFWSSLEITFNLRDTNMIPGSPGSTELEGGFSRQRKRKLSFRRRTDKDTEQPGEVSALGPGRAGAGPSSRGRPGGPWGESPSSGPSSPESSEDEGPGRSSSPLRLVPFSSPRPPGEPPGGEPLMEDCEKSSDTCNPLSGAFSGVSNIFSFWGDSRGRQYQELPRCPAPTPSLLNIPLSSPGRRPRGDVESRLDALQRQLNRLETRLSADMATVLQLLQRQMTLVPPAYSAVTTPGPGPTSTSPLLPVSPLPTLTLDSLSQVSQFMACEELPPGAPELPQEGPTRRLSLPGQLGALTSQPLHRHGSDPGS

| Kp at 0.5 h [2] | SMILES | inhibition at 10 min [1] [%] |
| --- | --- | --- |
| – | Cc1cnc(C(=O)Nc2ccc(F)c([C@]3(C)C=C(C(F)F)SC(N)=N3)c2)cn1 [Compound I-14] | 3.8 |
| 2.5 | CC(C)C1=C[C@@](C)(c2cc(NC(=O)c3ccc(C#N)cn3)ccc2F)N=C(N)S1 [Compound I-54] | – |
